Positions of bridges follow the written chain, without caps; N, C: chain ends. Residues, ends and D or L forms follow the SMILES beside them.
Assays:
Format in all cases: binding, human
[1] = test system: HIV antibodies; assay: ELISA with peptide-coated wells, samples negative for HIV antibodies or not described
Procedure: (§1) A preferred convenient and classical technique for the determination of antibodies against HIV-1 or HIV-2 using a peptide or a peptide mixture of the present invention is an enzyme-linked immunosorbent assay (ELISA). In this assay, for example, a peptide, peptide mixture or combination of the present invention is adsorbed onto, or covalently coupled to, the wells of a microtiter plate. The wells are then treated with the sera or analyte to be tested. After washing, antihuman IgG or antihuman IgM labeled with peroxidase is added to the wells. The determination of the peroxidase is performed with a corresponding substrate, e.g., with o-phenylene diamine. Without departing from the usefulness of the illustrative assay, the peroxidase can be exchanged by another label, e.g., by a radioactive, fluorescence chemiluminescence or infrared emitting label.
(§2) O.D. Values were obtained at 450 nm and the blank values measured with the sample dilution buffer were not subtracted.
(§3) Samples NEIA-2*2, BBI-1-162 to 168, 87B140, 87L139, 87V103 are all negative for HIV antibodies. Sample LSPQ-S9-1 is an early seroconverter (HIV-1). The series labeled CAP-113 to CAP-120 corresponds to a pool of seven HIV-1 positive plasma samples serially diluted with an HIV-negative plasma. CAP-113 is the pool diluted 50-fold with the HIV-negative plasma; CAP-114 is diluted 100-fold; CAP-115 is diluted 200-fold; etc. Similarly, the series labeled CAP-222 to CAP-230 corresponds to a pool of seven HIV-2 confirmed seropositive plasma samples. CAP-222 is diluted by 50 with an HIV-negative plasma; CAP-223 by 100; etc. Before the assay is done, each sample, including the CAP-series, is further diluted by 50 with the sample dilution buffer. In these tests, the cut-off for seropositivity is defined as the sum of the O.D. value for sample NEIA-2*2 plus 0.100.
(§4) Each well of the microtiter plate is saturated with 100 μl of a solution containing a peptide or mixture of peptides (5 μg/ml) and left overnight. The wells are emptied and washed twice with a washing buffer (Tris, 0.043M; NaCl, 0.5M; thimerosal, 0.01% w/v; Tween 20, 0.05% v/v; pH 7.4). The wells are then saturated with 0.35 ml of washing buffer for 1 hr. at 37° C. and washed once with the same buffer. Serum samples to be analyzed are diluted with specimen buffer (washing buffer plus casein, 0.05% w/v). The wells are rinsed with washing buffer prior to the addition of the diluted serum sample (0.1 ml). These are left to incubate for 1 hr. at room temperature. The wells are then emptied, washed twice rapidly and then once for two minutes with washing buffer. […] The wells are then emptied and washed twice rapidly with washing buffer and then five times in which the buffer was in contact with the well 2 minutes per washing. The substrate solution (3,3',5,5'-tetramethylbenzidine, 8 mg per ml of DMSO) is diluted with 100 volumes 0.1M citrate-acetate buffer, pH 5.6 containing 0.1% v/v of 30% H2 O2 and added to each well (0.1 ml per well). After 10 minutes the contents of each well is treated with 0.1 ml 2N H2 SO4 and the optical density read at 450 nm. All determinations are done in duplicate.
(§5) Peptide cocktails were prepared by mixing together equal volumes of two peptide solutions each at 10 ug/ml. One cocktail used peptides BCH-87c and BCH-202c and the other cocktail was a mixture of BCH-87ck and BCH-202ck. Each cocktail was used to coat two series of plates as described earlier.

[2] = test system: HIV-1 antibodies; assay: ELISA with peptide-coated wells, HIV-1 antibody positive samples (diluted plasma pool, seroconversion samples)
Procedure: as §1, §2, §3
as §4, with “duplicate. […]” for “duplicate.”

[3] = test system: HIV-2 antibodies; assay: ELISA with peptide-coated wells, HIV-2 seropositive plasma pool serially diluted; details: Test 314
Procedure: as §1, §2, §3, §4, §5

[4] = Test 350, sample 2-87-L-139 (negative for HIV antibodies)
[5] = Test 350, sample 2-87-V-103 (negative for HIV antibodies)
[6] = Test 350, sample 89-D-307 (not described)
[7] = Test 350, sample NEIA-2*2 (negative for HIV antibodies)
[8] = Test 350, sample CAP-10 (progressively higher dilutions)
[9] = Test 350, sample CAP-11 (progressively higher dilutions)
[10] = Test 350, sample CAP-12 (progressively higher dilutions)
[11] = Test 350, sample CAP-13 (progressively higher dilutions)
[12] = Test 350, sample CAP-14 (progressively higher dilutions)
[13] = Test 350, sample CAP-15 (progressively higher dilutions)
[14] = Test 350, sample CAP-16 (progressively higher dilutions)
[15] = Test 350, sample CAP-17 (progressively higher dilutions)
[16] = Test 350, sample CAP-18 (progressively higher dilutions)
[17] = Test 350, sample CAP-19 (progressively higher dilutions)

Row | SMILES | O.D. 450 nm [1, 4] | O.D. 450 nm [1, 5] | O.D. 450 nm [1, 6] | O.D. 450 nm [1, 7] | O.D. 450 nm [2, 8] | O.D. 450 nm [2, 9] | O.D. 450 nm [2, 10] | O.D. 450 nm [2, 11] | O.D. 450 nm [2, 12] | O.D. 450 nm [2, 13] | O.D. 450 nm [2, 14] | O.D. 450 nm [2, 15] | O.D. 450 nm [2, 16] | O.D. 450 nm [2, 17] | further results
1 | CC[C@H](C)[C@H](NC(=O)CNC(=O)[C@H](CC(C)C)NC(=O)[C@H](CC(C)C)NC(=O)[C@H](CCC(N)=O)NC(=O)[C@H](CCC(N)=O)NC(=O)[C@H](CC(=O)O)NC(=O)[C@H](CCCCN)NC(=O)[C@H](CC(C)C)NC(=O)[C@H](Cc1ccc(O)cc1)NC(=O)[C@H](CCCNC(=N)N)NC(=O)[C@H](CCC(=O)O)NC(=O)[C@@H](NC(=O)[C@H](C)NC(=O)[C@H](CC(C)C)NC(=O)[C@@H](NC(=O)[C@@H](N)CCCCN)[C@@H](C)CC)C(C)C)C(=O)N[C@@H](Cc1c[nH]c2ccccc12)C(=O)NCC(=O)N[C@H]1CSSC[C@@H](C(=O)N[C@H](C(=O)N[C@H](C(=O)N[C@@H](C)C(=O)N[C@H](C(=O)N2CCC[C@H]2C(=O)N[C@@H](Cc2c[nH]c3ccccc23)C(=O)N[C@@H](CC(N)=O)C(=O)N[C@@H](C)C(=O)N[C@@H](CO)C(=O)O)C(C)C)[C@@H](C)O)[C@@H](C)O)NC(=O)[C@H]([C@@H](C)CC)NC(=O)[C@H](CC(C)C)NC(=O)[C@H](CCCCN)NC(=O)CNC(=O)[C@H](CO)NC1=O [BCH-87ck] (H-KILAVERYLKDQQLLGIWGCSGKLICTTAVPWNAS-OH; disulfide 20-26) | 0.409 | 0.015 | 0.022 | 0.034 | > 2.8 | > 2.8 | 2.735 | 1.676 | 1.089 | 0.643 | 0.274 | 0.191 | 0.114 | 0.053 | O.D. 450 nm ([1]; Test 314, sample BBI-1-162 (negative for HIV antibodies)): 0.015; O.D. 450 nm ([1]; Test 314, sample BBI-1-169 (not described)): 0.090; O.D. 450 nm ([1]; Test 314, sample BBI-1-172 (not described)): 0.019; O.D. 450 nm ([1]; Test 314, sample NEIA-2*2 (negative for HIV antibodies)): 0.050; O.D. 450 nm ([2]; Test 314, sample CAP-113 (HIV-1 positive plasma pool diluted 50-fold)): > 2.8; O.D. 450 nm ([2]; Test 314, sample CAP-114 (HIV-1 positive pool diluted 100-fold)): > 2.8; O.D. 450 nm ([2]; Test 314, sample CAP-115 (HIV-1 positive pool diluted 200-fold)): 2.593; O.D. 450 nm ([2]; Test 314, sample CAP-116 (HIV-1 positive pool, serial dilution)): 1.871; O.D. 450 nm ([2]; Test 314, sample CAP-117 (HIV-1 positive pool, serial dilution)): 1.158; O.D. 450 nm ([2]; Test 314, sample CAP-118 (HIV-1 positive pool, serial dilution)): 0.679; O.D. 450 nm ([2]; Test 314, sample CAP-119 (HIV-1 positive pool, serial dilution)): 0.392; O.D. 450 nm ([2]; Test 314, sample CAP-120 (HIV-1 positive pool, serial dilution)): 0.229; O.D. 450 nm ([3]; sample CAP-222 (HIV-2 positive plasma pool diluted by 50)): 0.069; O.D. 450 nm ([3]; sample CAP-223 (HIV-2 positive pool diluted by 100)): 0.060; O.D. 450 nm ([3]; sample CAP-224 (HIV-2 positive pool, serial dilution)): 0.054; O.D. 450 nm ([3]; sample CAP-225 (HIV-2 positive pool, serial dilution)): 0.050; O.D. 450 nm ([3]; sample CAP-226 (HIV-2 positive pool, serial dilution)): 0.050; O.D. 450 nm ([3]; sample CAP-227 (HIV-2 positive pool, serial dilution)): 0.043; O.D. 450 nm ([3]; sample CAP-228 (HIV-2 positive pool, serial dilution)): 0.042; O.D. 450 nm ([3]; sample CAP-230 (HIV-2 positive pool, serial dilution)): 0.049
2 | CC[C@H](C)[C@H](NC(=O)[C@H](CC(C)C)NC(=O)[C@H](CCCCN)NC(=O)CNC(=O)[C@H](CO)NC(=O)[C@H](C)NC(=O)[C@H](CC(N)=O)NC(=O)[C@H](Cc1c[nH]c2ccccc12)NC(=O)[C@@H]1CCCN1C(=O)[C@@H](NC(=O)[C@H](C)NC(=O)[C@@H](NC(=O)[C@@H](NC(=O)[C@@H]1CSSC[C@H](NC(=O)CNC(=O)[C@H](Cc2c[nH]c3ccccc23)NC(=O)[C@@H](NC(=O)CNC(=O)[C@H](CC(C)C)NC(=O)[C@H](CC(C)C)NC(=O)[C@H](CCC(N)=O)NC(=O)[C@H](CCC(N)=O)NC(=O)[C@H](CC(=O)O)NC(=O)[C@H](CCCCN)NC(=O)[C@H](CC(C)C)NC(=O)[C@H](Cc2ccc(O)cc2)NC(=O)[C@H](CCCNC(=N)N)NC(=O)[C@H](CCC(=O)O)NC(=O)[C@@H](NC(=O)[C@H](C)NC(=O)[C@H](CC(C)C)NC(=O)[C@@H](NC(=O)[C@@H](N)CCCCN)[C@@H](C)CC)C(C)C)[C@@H](C)CC)C(=O)N[C@@H](CO)C(=O)NCC(=O)N[C@@H](CCCCN)C(=O)N[C@@H](CC(C)C)C(=O)N[C@@H]([C@@H](C)CC)C(=O)N1)[C@@H](C)O)[C@@H](C)O)C(C)C)C(=O)O [BCH-408] (H-KILAVERYLKDQQLLGIWGCSGKLICTTAVPWNASGKLI-OH; disulfide 20-26) | 0.025 | 0.014 | 0.029 | 0.035 | > 2.8 | > 2.8 | > 2.8 | 2.319 | 1.433 | 0.835 | 0.455 | 0.244 | 0.156 | 0.102 | sensitivity compared to the other peptides ([2]; Table 3, versus BCH-87c, BCH-87ck, BCH-266 at progressively higher dilutions): superior sensitivity
